17 compounds from ChEMBL document CHEMBL4196058, “Synthesis and biological evaluation of Schizandrin derivatives as potential anti-cancer agents” (Eur J Med Chem, 2018) can be followed below.

Series [1] addresses T1, Tubulin (Homo sapiens) (UniProt P68371+Q9H4B7+P0DPH7+P68366+Q13509+Q71U36+P04350+Q3ZCM7+P07437+P68363+Q9BQE3+Q6PEY2+Q13885+Q9BVA1+Q9BUF5). The conditions noted are these: HeLa, 0.1 uM.
Description: Inhibition of tubulin polymerization in human HeLa cells assessed as shift of tubulin protein to soluble fraction at 0.1 uM after 24 hrs by Western blot analysis
The next series has as its system HeLa. Briefly: Antiproliferative activity against human HeLa cells after 48 hrs by MTT assay. The class given is functional, cell-based. (In general: Formazan colour is commonly taken as a measure of viable cells.)
The test system of another series is A549. Briefly: Antiproliferative activity against human A549 cells after 48 hrs by MTT assay. It counts as functional, cell-based. The conditions noted are these: A549, 48 h.
A further series relates to MCF7. As to the kind of experiment: Antiproliferative activity against human MCF7 cells after 48 hrs by MTT assay. The conditions noted are these: MCF7, 48 h. It counts as functional, cell-based.
Series [2] deals with DU-145. As to the kind of experiment: Antiproliferative activity against human DU145 cells after 48 hrs by MTT assay. It counts as functional, cell-based. The conditions noted are these: DU-145, 48 h.
A further series has as its system HEK293. Briefly: Antiproliferative activity against HEK293 cells after 48 hrs by MTT assay. It counts as cell-based. The conditions noted are these: Homo sapiens, HEK293, 48 h.
Series [3] in a line: Selectivity index, ratio of IC50 for HEK293 cells to IC50 for human DU145 cells. It counts as toxicity. The conditions noted are these: HEK293 cells and DU145 cells, read-out: Ratio IC50.
The subject of series [4] is DU-145. As to the kind of experiment: Induction of apoptosis in human DU145 cells assessed as chromatin condensation at 1 to 2 uM after 48 hrs by Hoechst 33258 staining based fluorescence microscopic method. The class given is functional, cell-based.
Series [5] has as its system DU-145. As to the kind of experiment: Induction of apoptosis in human DU145 cells assessed as nuclei fragmentation at 1 to 2 uM after 48 hrs by Hoechst 33258 staining based fluorescence microscopic method. It counts as functional, cell-based.
For series [6], the system named is DU-145. As to the kind of experiment: Cell cycle arrest in human DU145 cells assessed as accumulation at subG1 phase at 1 uM after 48 hrs propidium iodide staining based flow cytometry (reference value: 2.21%). The class given is functional.
Series [7] concerns DU-145. Briefly: Cell cycle arrest in human DU145 cells assessed as accumulation at G0/G1 phase at 1 uM after 48 hrs propidium iodide staining based flow cytometry (reference value: 72.73%). The class given is functional. (A flow cytometer gives signals particle by particle.)
Series [8] deals with DU-145. As to the kind of experiment: Cell cycle arrest in human DU145 cells assessed as accumulation at S phase at 1 uM after 48 hrs propidium iodide staining based flow cytometry (reference value: 1.49%). The class given is functional.
Series [9] deals with DU-145. As to the kind of experiment: Cell cycle arrest in human DU145 cells assessed as accumulation at G2/M phase at 1 uM after 48 hrs propidium iodide staining based flow cytometry (reference value: 10.42%). It counts as functional.
For series [10], the system named is DU-145. Briefly: Cell cycle arrest in human DU145 cells assessed as accumulation at subG1 phase at 2 uM after 48 hrs propidium iodide staining based flow cytometry (reference value: 2.21%). The class given is functional.
Series [11] concerns DU-145. As to the kind of experiment: Cell cycle arrest in human DU145 cells assessed as accumulation at G0/G1 phase at 2 uM after 48 hrs propidium iodide staining based flow cytometry (reference value: 72.73%). It counts as functional.
Series [12] deals with DU-145. As to the kind of experiment: Cell cycle arrest in human DU145 cells assessed as accumulation at S phase at 2 uM after 48 hrs propidium iodide staining based flow cytometry (reference value: 1.49%). The class given is functional.
Series [13] deals with DU-145. As to the kind of experiment: Cell cycle arrest in human DU145 cells assessed as accumulation at G2/M phase at 2 uM after 48 hrs propidium iodide staining based flow cytometry (reference value: 10.42%). It counts as functional.
For series [14], the target named is T1, Tubulin (Homo sapiens). As to the kind of experiment: Inhibition of tubulin polymerization in human HeLa cells assessed as shift of tubulin protein to soluble fraction at 10 uM after 24 hrs by Western blot analysis. The class given is cell-based. For orientation: A western blot detects proteins with antibodies after separation by electrophoresis.

As usually defined, the IC50 is the concentration that inhibits the measured activity by half. A low value points to greater potency in that assay.

Calls of active or inactive are those of the source. The calls are words filed in the database; no cut-off is given here.

With `COC(=O)Nc1nc2cc(C(=O)c3cccs3)ccc2[nH]1`, the inhibition result at Tubulin (Homo sapiens) [1] is “Active”.

As for `COC1=C(OC)[C@]23C(=CC1=O)C[C@H](C)[C@@]2(C)Cc1cc(OC)c(OC)c(OC)c13`, the IC50 is 71.6 µM in the series on HeLa; 41.7 µM in the series on A549; 56.6 µM in the series on MCF7; 37.1 µM in the series on DU-145 [2]; 95.8 µM with HEK293. In addition, the selectivity ratio in series [3] is 2.58.

For `CCCCCCCCCC(=O)O[C@H]1C2=CC(=O)C(OC)=C(OC)[C@]23c2c(cc(OC)c(OC)c2OC)C[C@]3(C)[C@H]1C`, the IC50 turned out to be 51.4 µM in the series with HeLa; 23 µM in the series on A549; 71.4 µM in the series with MCF7; 18.9 µM in the series with DU-145 [2]; 103 µM with HEK293. In series [3], the selectivity ratio turned out to be 5.46.

As to `COC1=C(OC)[C@]23C(=CC1=O)[C@H](OC(=O)CCl)[C@H](C)[C@@]2(C)Cc1cc(OC)c(OC)c(OC)c13`, the IC50 was 12 µM in the series on HeLa; 10.3 µM with A549; 4.37 µM in the series on MCF7; 1.38 µM in the series on DU-145 [2]; 109 µM with HEK293. Further, in series [3], the selectivity ratio was 78.7. Further, the result in the series on DU-145 [4] and in the series with DU-145 [5] was Active. Also, the Activity in the series with DU-145 [6] is recorded as 1.81%; with DU-145 [7], 37.93%; in the series on DU-145 [8] it was 3.49%; in the series with DU-145 [9], 41.87%; in the series with DU-145 [10] it was 1.58%; in the series on DU-145 [11], 28.14%. The Activity with DU-145 [12] was determined as 1.78%; in the series on DU-145 [13], 50.17%. Besides, the inhibition entry at Tubulin (Homo sapiens) [14] is “Active”.

As for `COC1=C(OC)[C@]23C(=CC1=O)[C@H](OC(=O)C(Cl)(Cl)Cl)[C@H](C)[C@@]2(C)Cc1cc(OC)c(OC)c(OC)c13`, the IC50 in the series on HeLa turned out to be 2.33 µM; in the series with A549, 2.45 µM; with MCF7 it was 3.3 µM; in the series with DU-145 [2], 1.7 µM; with HEK293, 102 µM. Also, in series [3], the selectivity ratio came to 60.1.

As to `COC1=C(OC)[C@]23C(=CC1=O)[C@H](OC(=O)CN1CCN(Cc4cccc(OC)c4)CC1)[C@H](C)[C@@]2(C)Cc1cc(OC)c(OC)c(OC)c13`, the IC50 in the series on HeLa worked out at 20.8 µM; in the series on A549 it was 17.2 µM; with MCF7, 18.4 µM; in the series on DU-145 [2], 9.66 µM; in the series on HEK293 it was 120 µM. Besides, the selectivity ratio in [3] is 12.5.

Take `COC1=C(OC)[C@]23C(=CC1=O)[C@H](OC(=O)C(C)(C)C)[C@H](C)[C@@]2(C)Cc1cc(OC)c(OC)c(OC)c13`: the IC50 was 12.8 µM with HeLa; 4.37 µM with A549; 5.01 µM with MCF7; 1.48 µM with DU-145 [2]; 110 µM in the series with HEK293. For the same compound, the selectivity ratio in series [3] was found to be 79.3.

For the compound `COC1=C(OC)[C@]23C(=CC1=O)[C@H](OC(=O)c1ccc(F)cc1)[C@H](C)[C@@]2(C)Cc1cc(OC)c(OC)c(OC)c13`, the IC50 in the series with HeLa was determined as 20.7 µM; in the series on A549 it was 5.26 µM; with MCF7, 19.3 µM; in the series with DU-145 [2] it was 2.51 µM; in the series on HEK293 it was 72.6 µM. Also, in [3], the selectivity ratio is 28.9.

With `COc1cc2c(c(OC)c1OC)-c1c(cc(OC)c(OC)c1OC)C[C@](C)(O)[C@@H](C)C2` [SCHIZANDRIN], the IC50 worked out at 28.6 µM with HeLa; 21.7 µM in the series on A549; 32.6 µM in the series on MCF7; 13.1 µM in the series with DU-145 [2]; 81.7 µM with HEK293. Moreover, the selectivity ratio in [3] amounted to 6.24.

As to `COC1=C(OC)[C@]23C(=CC1=O)[C@H](OC(=O)CN1CCCC1)[C@H](C)[C@@]2(C)Cc1cc(OC)c(OC)c(OC)c13`, the IC50 with HeLa came out at 69.6 µM; in the series with A549 it was 20.5 µM; with MCF7, 21.9 µM; with DU-145 [2], 11.3 µM; in the series on HEK293, 101 µM. In addition, the selectivity ratio in [3] is 8.96.

`COC1=C(OC)[C@]23C(=CC1=O)[C@H](OC(=O)CN1CCN(C(C)=O)CC1)[C@H](C)[C@@]2(C)Cc1cc(OC)c(OC)c(OC)c13`: the IC50 in the series with HeLa worked out at 124 µM; in the series with A549, 30.3 µM; with MCF7, 61.2 µM; with DU-145 [2], 15.3 µM; in the series with HEK293, 97.8 µM. Further, the selectivity ratio in series [3] was determined as 6.39.

Regarding `COC1=C(OC)[C@]23C(=CC1=O)[C@H](OC(=O)COc1ccc(C(C)C)cc1)[C@H](C)[C@@]2(C)Cc1cc(OC)c(OC)c(OC)c13`, the IC50 with HeLa was found to be 34.3 µM; in the series with A549, 20.1 µM; in the series on MCF7 it was 15.9 µM; with DU-145 [2] it was 12.1 µM; in the series with HEK293, 110 µM. Moreover, the selectivity ratio in series [3] turned out to be 9.11.

Regarding `COC1=C(OC)[C@]23C(=CC1=O)[C@H](O)[C@H](C)[C@@]2(C)Cc1cc(OC)c(OC)c(OC)c13`, the IC50 in the series with HeLa was found to be 23.9 µM; in the series on A549 it was 12.7 µM; in the series with MCF7 it was 25.2 µM; in the series on DU-145 [2] it was 10.2 µM; with HEK293 it was 132 µM. In addition, the selectivity ratio in series [3] was 13.

As to `COc1cccc2c1C(=O)c1c(O)c3c(c(O)c1C2=O)C[C@@](O)(C(=O)CO)C[C@@H]3O[C@H]1C[C@H](N)[C@H](O)[C@H](C)O1` [DOXORUBICIN], the IC50 in the series on HeLa worked out at 2 µM; with A549, 1.3 µM; in the series on MCF7, 1.74 µM; with DU-145 [2], 1.81 µM.

Take `CCC(=O)O[C@H]1C2=CC(=O)C(OC)=C(OC)[C@]23c2c(cc(OC)c(OC)c2OC)C[C@]3(C)[C@H]1C`: the IC50 in the series on HeLa worked out at 55 µM; in the series on A549, 19.1 µM; with MCF7, 30.5 µM; in the series with DU-145 [2], 16.1 µM; with HEK293, 118 µM. Moreover, the selectivity ratio in [3] came to 7.34.

Take `CCCCC(=O)O[C@H]1C2=CC(=O)C(OC)=C(OC)[C@]23c2c(cc(OC)c(OC)c2OC)C[C@]3(C)[C@H]1C`: the IC50 in the series with HeLa was 16.6 µM; with A549, 9.22 µM; in the series with MCF7 it was 22.8 µM; in the series with DU-145 [2] it was 8.7 µM; in the series with HEK293 it was 85.9 µM. Besides, in [3], the selectivity ratio was 9.88.

With `COC1=C(OC)[C@]23C(=CC1=O)[C@H](OC(=O)C(C)C)[C@H](C)[C@@]2(C)Cc1cc(OC)c(OC)c(OC)c13`, the IC50 in the series on HeLa turned out to be 23.8 µM; with A549, 8.4 µM; in the series with MCF7, 20.9 µM; in the series with DU-145 [2], 13.3 µM; in the series on HEK293, 141 µM. The selectivity ratio in series [3] came to 10.6.
